{"source": "patent US20220175682A1", "about": "“Siremadlin Succinate” (Novartis AG, priority 2019, published 2022)", "key": {"[1]": {"assay": "Particle size distribution by laser light diffraction (LLD)", "format": "physicochemical", "from_the_text": "Values are given in micrometer, measurements done by laser light diffraction (LLD)."}, "[2]": {"assay": "Behaviour of co-crystal in aqueous media", "format": "physicochemical"}}, "data": [{"smiles": "COc1ncc(-c2nc3c(n2C(C)C)[C@H](c2ccc(Cl)cc2)N(c2cc(Cl)cn(C)c2=O)C3=O)c(OC)n1", "note": "[HDM201-BBA, (6S)-5-(5-Chloro-1-methyl-2-oxo-1,2-dihydropyridin-3-yl)-6-(4-chlorophenyl)-2-(2,4-dimethoxypyrimidin-5-yl)-1-(propan-2-yl)-5,6-dihydropyrrolo[3,4-d]imidazol-4(1H)-one]", "values": [{"measurement": "particle size range X90(LLD) found suitable for direct encapsulation", "setting": "[1]", "result": "10-200 micrometer"}, {"measurement": "stability of co-crystal in aqueous media", "setting": "[2]", "result": "can disproportionate into the free form in aqueous media"}]}]}
